# Data reported in patent US20240246815A1, “CHLORINE PEROXIDE RADICAL, AND PRODUCTION METHOD, COMPOSITION, QUANTIFICATION METHOD AND USE THEREOF” (SANKEI CO., LTD., priority 2021, published 2024).
# Experiment: Longevity of ESR signals in aqueous solution obtained by adding an acid to sodium chlorite
# Type: physicochemical
# Conditions: relatively low concentration of HCl (0.1 M sodium chlorite with 0.08 M HCl 1:1), stored in a dark location
# Experimental: An aqueous solution obtained by adding an acid to sodium chlorite was prepared by mixing 0.1 M sodium chlorite with 2.5 M hydrochloric acid to achieve a desired concentration by using ion exchange water. The concentration of sodium chlorite was measured by standard iodometry.
# An aqueous solution obtained by adding an acid to sodium chlorite was placed in a glass capillary tube with a length of 100 mm and inner diameter of 2 mm. The glass capillary was transferred to a capillary cell attached to an ESR cavity, and ESR measurement was taken by using an X band spectrometer (JEOL FA-100ESR) operated at 9.43 GHz at room temperature. The magnetic field was modulated at 100 KHz. […] The signal intensity was normalized with respect to an MnO marker, and the concentration of stable radical products was determined based on signal height by using an external standard TEMPOL. Radical species found in an aqueous solution obtained by adding an acid to sodium chlorite was quantified by using an integrated software for determining a spectral region mounted onto an ESR device.
# Free radicals in an aqueous solution obtained by adding an acid to sodium chlorite were measured by using ESR measurement. […] The solution was measured 4 minutes later by ESR spectroscopy. […]
substance,measurement,value
chlorine peroxide radical,ESR signals remained stable,one
